Experimental data: PMC10761937, “Functional engineering of human iPSC‐derived parasympathetic neurons enhances responsiveness to gastrointestinal hormones” (FEBS Open Bio, 2023)

System: NPY2R
Test: Ca^2+ imaging, NPY2R‐HEK293T cells
Format: cell-based, human
Settings: PYY (3-36) per Fig. S2B, Fluo‐8 AM, Ringer's solution pH 7.4, ΔF/F0, n = 10
Protocol: HEK293T cells (Lenti‐X 293T Cell line; TaKaRa, Shiga, Japan) were maintained in Dulbecco's Modified Eagle Medium (DMEM; Fujifilm Wako Pure Chemical Industries, Osaka, Japan) supplemented with 10% fetal bovine serum (Biowest, Nuaillé, France), 1% non‐essential amino acids (NEAA) (Fujifilm Wako Pure Chemical Industries), and 1% penicillin–streptomycin (P/S) (Fujifilm Wako Pure Chemical Industries) and cultured in non‐coated culture plates at 37 °C and in an incubator with 5% CO2. The culture medium was replaced every 2–3 days. At 80–90% confluence, the cell colonies were digested into single cells using TrypLE Express (Thermo Fisher Scientific). The resulting cells were used for lentiviral transfection and agonist experiments.
Figure S1 presents the protocol used for this experiment. Lentiviral vectors were acquired from VectorBuilder (VectorBuilder Japan, Inc., Kanagawa, Japan). […]
Transduced HEK293T and neurons were incubated with 10 μM Fluo‐8 AM, a calcium indicator (AAT Bioquest, Pleasanton, CA, USA), in each culture medium (Cell lines and cell culture and Induction to parasympathetic neurons sections) at 37 °C for 30 min. […] Fluorescence (excitation: 490 nm, emission: 525 nm) was detected using a confocal spinning disk confocal laser scanning unit (CSU‐W1; Yokogawa Electric, Tokyo, Japan) and an LED light (X‐Cite 120LED; Opto Science, Tokyo, Japan). […]

PYY: PYY (4400‐v; Peptide Institute, Inc.); PYY (3–36) in Ca2+ imaging
Concentration giving response (increased intracellular Ca^2+ concentration): > 10 nM
